Data on 2 compounds can be found in BindingDB's records for doi:10.1021/jm00101a030 (University of Michigan, 1992).

The experiment in a line: Binding affinity against Opioid receptor delta 1 in guinea pig brain homogenates, using [3H]DPDPE as radioligand.

What is called Ki is the equilibrium dissociation constant of an inhibitor or competing ligand from its target. A high value points to lower affinity. `CC1(C)SSC[C@@H](NC(=O)[C@@H]2NCC[C@@H]2c2ccc(O)cc2)C(=O)N[C@@H](Cc2ccccc2)C(=O)N[C@@H]1C(=O)O`: the Ki was 84 nM.
With `CC1(C)SSC[C@@H](NC(=O)[C@H]2NCC[C@@H]2c2ccc(O)cc2)C(=O)N[C@@H](Cc2ccccc2)C(=O)N[C@@H]1C(=O)O` the figure was 0.66 nM.
